Key:
HepG2 cells [1] = experiment: Cytotoxicity in HepG2 cells, 4 days, Resazurin assay; details: read-out: HepG2 4 days CC50; HepG2 cells, 4 days, Resazurin
[2] = Cytotoxicity in HepG2 cells using CellTiter-Blue (6 days); details: human
HBV [3] = experiment: Anti-HBV activity in HepG2.117 cell line (Tet-off, intracellular HBV DNA, realtime PCR); assay type: cell-based; details: Hepatitis B virus, HepG2.117, 72 h, HepG2.117 cells, 3 days of treatment, intracellular HBV DNA; read-out: HepG2 117 EC50
HBV [4] = experiment: Anti-HBV activity in stable transfected HepG2.2.15 cell line (HBV DNA from secreted virions, realtime PCR); assay type: cell-based; details: Hepatitis B virus, HepG2.2.15, 144 h, HepG2.2.15 cells, 6 days of treatment, secreted virion HBV DNA; read-out: HepG2 2.15 EC50
[5] = Cytotoxicity in HepG2 cells, 4 days, Resazurin assay; details: human
HepG2 cells [6] = experiment: Cytotoxicity in HepG2 cells using CellTiter-Blue (6 days); details: read-out: HepG2 6 days CC50, 6 days, CellTiter-Blue

| SMILES | CC50 (HepG2 cells [1]) [µM] | CC50 at 6 days [2] [µM] | EC50 (HBV [3]) [µM] | EC50 (HBV [4]) [µM] | CC50 at 4 days ([5]; HepG2 cells) [µM] | CC50 (HepG2 cells [6]) [µM] | CC50 at 4 days [5] [µM] |
| --- | --- | --- | --- | --- | --- | --- | --- |
| O=C(Nc1ccc(F)cc1)c1cc(S(=O)(=O)NC2CCCCC2)ccc1F [Compound 18] | > 50 | 51.6 | 1.3 | 0.78 |  |  |  |
| O=C(Nc1ccccc1)c1cc(S(=O)(=O)NC2CCCCC2)ccc1F [Compound 19] | > 25 | 42.5 | 0.6 | 0.66 |  |  |  |
| O=C(Nc1ccccc1)c1cccc(S(=O)(=O)NC2CCCC2)c1 [Compound 21] |  |  | 0.76 | 0.6 | 41.1 | 27.2 |  |
| O=C(Nc1ccccc1)c1cc(S(=O)(=O)N2CCCCC2)c(Cl)cc1Cl [Compound 20] |  |  | 1 | 0.5 |  | > 25 | 79.6 |
| CCN(CC)S(=O)(=O)c1ccc(Cl)c(C(=O)Nc2ccccc2)c1 [Compound 26] |  |  |  | 1.04 |  | > 25 |  |
| O=C(Nc1ccccc1)c1ccc(F)c(S(=O)(=O)NC2CCCCC2)c1 [Compound 31] |  |  |  | 2.23 |  | 16.4 |  |
| O=C(Nc1ccc(F)cc1)c1ccc(Cl)c(S(=O)(=O)N2CCCCCC2)c1 [Compound 23] |  |  | 1.3 | 0.66 | 19.6 | 17 |  |

From patent publication US10676429B2, “Sulfamoyl-arylamides and the use thereof as medicaments for the treatment of hepatitis B” (priority 2012, dated 2020)
